Laboratory results: patent publication US20240409609A1, “REVERSIBLE LYSINE COVALENT MODIFIERS OF EGFR AND USES THEREOF” (Terremoto Biosciences, Inc., priority 2021, published 2024)

Experiments:
[1] = target: WT-EGFR (Homo sapiens (Human), UniProt P00533); assay: EGFR jump dilution study; type: biochemical; settings: 100-fold dilution, 1 mM ATP, up to 10 hrs
Method: Enzyme:inhibitor complexes were pre-formed at EGFR 100Y^1 final reaction concentration by incubating enzyme with an inhibitor at the greater concentration of either 10Y^1 inhibitor IC50, or 1:1.2 stoichiometry with enzyme.
After incubating enzyme:inhibitor complexes on ice for 30 min, reactions were diluted in two steps 100-fold into reaction buffer supplemented with 1 mM ATP, and 20 uM AssayQuant substrate (AQT0734), with final reaction volumes of 20 μL in a 384 well reaction plate. Wells were read immediately and at timepoints post-dilution for up to 10 hrs in a PerkinElmer Ensight plate reader, according to the AssayQuant manufacturer's instructions.
Data processing: Raw fluorescence signal was first background corrected by subtracting the fluorescence intensity of wells containing only the AssayQuant substrate, and no enzyme. Enzyme activity was normalized relative DMSO controls for each enzyme at each timepoint. In this way, DMSO-treated wells appear as a constant normalized activity=1 throughout the assay.
The X-axis of each of the three graphs represents the time after dilution that the enzyme activity was measured, with t=0 representing the time of jump dilution. The Y-axis of each graph provides the enzymatic activity at each time point. Enzymatic activity is normalized to the DMSO-treated control samples (i.e., the same enzyme variant treated with DMSO instead of compound). As such, a DMSO-normalized value of 1.0 represents full enzymatic activity (i.e., equivalent to the DMSO-treated control), while a value below 1.0 represents reduced activity relative to control (i.e., some degree of enzyme inhibition at the time measured). The data points over time (e.g., from 0 to 600 minutes post-dilution) are therefore indicative of the off-rate for the compound. […] Thus, the jump-dilution data provided a qualitative estimate of the off-rate kinetics for each compound against the panel of EGFR variants. Experiments were run in duplicate, resulting in two different data sets for each graph.

[2] = target: EGFR WT (Homo sapiens (Human), UniProt P00533); assay: EGFR biochemical assay (AssayQuant chelation-enhanced fluorescence); settings: 30 min preincubation, reaction time 360 min
EGFR WT, sequence (P00533 668-1210): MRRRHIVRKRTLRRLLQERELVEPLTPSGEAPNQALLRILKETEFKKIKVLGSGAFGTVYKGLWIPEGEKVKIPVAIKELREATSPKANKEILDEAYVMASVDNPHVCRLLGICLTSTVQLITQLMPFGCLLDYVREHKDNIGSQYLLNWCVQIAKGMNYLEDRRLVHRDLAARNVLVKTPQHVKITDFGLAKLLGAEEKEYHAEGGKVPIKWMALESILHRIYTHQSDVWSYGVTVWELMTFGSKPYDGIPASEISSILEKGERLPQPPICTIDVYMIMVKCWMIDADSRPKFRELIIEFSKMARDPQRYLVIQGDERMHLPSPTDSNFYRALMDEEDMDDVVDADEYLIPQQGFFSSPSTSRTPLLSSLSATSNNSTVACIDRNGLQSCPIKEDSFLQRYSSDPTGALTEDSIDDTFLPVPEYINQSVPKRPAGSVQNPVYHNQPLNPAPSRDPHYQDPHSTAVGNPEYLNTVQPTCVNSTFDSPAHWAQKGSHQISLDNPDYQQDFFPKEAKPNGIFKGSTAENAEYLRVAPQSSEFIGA

[3] = target: EGFR WT in Ba/F3 cells (Homo sapiens (Human), UniProt P00533); assay: Ba/F3 pEGFR assay (AlphaLISA p-EGFR Tyr1068); type: cell-based; settings: 2 hrs treatment, media supplemented with EGF
EGFR WT in Ba/F3 cells, sequence (P00533 25-1210): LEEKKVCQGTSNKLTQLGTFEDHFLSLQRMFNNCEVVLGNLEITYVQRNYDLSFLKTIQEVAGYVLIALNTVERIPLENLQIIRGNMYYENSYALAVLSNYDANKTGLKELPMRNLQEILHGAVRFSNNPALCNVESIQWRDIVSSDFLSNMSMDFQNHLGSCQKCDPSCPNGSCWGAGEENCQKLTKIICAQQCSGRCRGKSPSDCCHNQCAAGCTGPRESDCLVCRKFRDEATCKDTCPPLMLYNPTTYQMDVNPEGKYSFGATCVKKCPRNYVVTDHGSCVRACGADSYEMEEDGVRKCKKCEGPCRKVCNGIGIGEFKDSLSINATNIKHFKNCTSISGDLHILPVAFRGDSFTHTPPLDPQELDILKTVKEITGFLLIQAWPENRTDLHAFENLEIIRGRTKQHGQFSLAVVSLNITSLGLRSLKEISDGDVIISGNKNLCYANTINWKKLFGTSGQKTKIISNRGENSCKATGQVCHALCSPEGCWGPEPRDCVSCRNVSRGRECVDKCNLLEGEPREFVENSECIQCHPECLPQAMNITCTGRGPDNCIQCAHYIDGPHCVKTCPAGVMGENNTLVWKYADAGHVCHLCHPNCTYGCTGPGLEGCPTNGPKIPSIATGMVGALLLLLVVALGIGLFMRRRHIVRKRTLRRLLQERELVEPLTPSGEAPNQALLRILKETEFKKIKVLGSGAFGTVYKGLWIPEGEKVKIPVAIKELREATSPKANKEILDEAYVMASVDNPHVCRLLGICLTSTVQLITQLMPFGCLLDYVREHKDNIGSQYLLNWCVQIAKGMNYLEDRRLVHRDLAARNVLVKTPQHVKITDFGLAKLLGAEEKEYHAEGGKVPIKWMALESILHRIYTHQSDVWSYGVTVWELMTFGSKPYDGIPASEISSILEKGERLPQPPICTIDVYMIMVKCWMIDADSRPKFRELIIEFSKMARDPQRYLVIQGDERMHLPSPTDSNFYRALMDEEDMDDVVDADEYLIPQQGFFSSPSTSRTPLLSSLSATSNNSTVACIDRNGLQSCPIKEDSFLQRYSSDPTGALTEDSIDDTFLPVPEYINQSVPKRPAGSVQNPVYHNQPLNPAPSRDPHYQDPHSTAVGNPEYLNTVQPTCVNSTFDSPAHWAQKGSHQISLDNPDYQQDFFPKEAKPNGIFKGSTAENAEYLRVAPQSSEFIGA
Method: Cellular activity was determined using the Ba/F3 system for studying oncogenic mutant kinases (Warmuth 2007). […] Transduced cells were maintained in RPMI 1640 with 10% FBS. EGFR WT transduced cells were grown in media supplemented with EGF. To assay cellular activity of inhibitors, cells were treated with inhibitor from 1000X DMSO stock dilutions and incubated for 2 hrs at 37° C. 5% CO2. Subsequently, p-EGFR (Tyr1068) was quantified using a commercial sandwich immunoassay (PerkinElmer AlphaLISA SureFire assay; ALSU-PEGFR) according to the manufacturer's instructions. […] Curr Opin Oncol 19, 55-60 (2007), which is incorporated herein in its entirety.

WT-EGFR, sequence (P00533 668-1210): as the sequence (P00533 668-1210) above

| SMILES | off-rate kinetics after jump dilution [1] | IC50 [2] | IC50 [3] |
| --- | --- | --- | --- |
| COc1cc(N(C)CCN(C)C)c(NC(C)=O)cc1Nc1nccc(-c2cn(Cc3cccc(C=O)c3O)c3ccccc23)n1 [Compound 7] | slow-off kinetics |  |  |
| COc1cc(N2CCC(N3CCN(C)CC3)CC2)ccc1Nc1ncc(Cl)c(Nc2ccccc2-c2cccc(C=O)c2O)n1 [Compound 6] | slow-off kinetics | > 1000 nM |  |
| COc1cc(N2CCC(N3CCN(C)CC3)CC2)ccc1Nc1ncc(-c2ccc(O)c(C=O)c2)c(Nc2ccccc2)n1 [Compound 3] | slow-off kinetics |  |  |
| CN1CCN(Cc2ccc3[nH]/c(=N\C(=O)c4cc(C=O)cc(Oc5cccc(O)c5C=O)c4)n(CC(C)(C)O)c3c2)CC1 [Compound 58] |  | 10.3 nM | > 10000 nM |
| CN1CCN(Cc2ccc3[nH]/c(=N\C(=O)c4ccnc(-c5cnn(-c6cccc(O)c6C=O)c5)c4)n(CC(C)(C)O)c3c2)CC1 [Compound 88] |  | 108 nM | > 9970 nM |
| CC(C)c1ccc(N2CC(CS(C)(=O)=O)C2)c2cnc(Nc3ccnc(N(C)Cc4cccc(C=O)c4O)n3)cc12 [Compound 49] |  | > 1000 nM | 2290 nM |
| CN1CCN(Cc2ccc3[nH]/c(=N\C(=O)c4cccc(Oc5cccc(O)c5C=O)n4)n(CC(C)(C)O)c3c2)CC1 [Compound 93] |  | 490 nM | > 10000 nM |
| CC(C)c1ccc(N2CC(CS(C)(=O)=O)C2)c2cnc(Nc3ccnc(N(C)CCc4cccc(O)c4C=O)n3)cc12 [Compound 45] |  | > 1000 nM | > 10000 nM |
| COc1cc(N(C)CCN(C)C)c(NC(C)=O)cc1Nc1nccc(-c2cn(Cc3cccc(O)c3C=O)c3ccccc23)n1 [Compound 28] |  | > 1000 nM | > 10000 nM |
| C#CCNC(=O)c1cc(Nc2cc(C3CC3)[nH]n2)nc(N2CCN(Cc3ccc(C=O)c(O)c3)CC2)n1 [Compound 1] | enzymatic activity quickly returned following dilution |  |  |
| CC(C)(O)Cn1/c(=N/C(=O)c2ccnc(N3CCN(c4cccc(O)c4C=O)CC3)c2)[nH]c2ccccc21 [Compound 131] |  | > 1000 nM | > 10000 nM |
| CN1CCN(Cc2ccc3[nH]/c(=N\C(=O)c4ccnc(Oc5ccccc5C=O)c4)n(CC(C)(C)O)c3c2)CC1 [Compound 92] |  | 296 nM | 9060 nM |
| CN1CCN(Cc2ccc3[nH]/c(=N\C(=O)c4ccnc(C#Cc5cccc(NC(=O)C(F)(F)F)c5C=O)c4)n(CC(C)(C)O)c3c2)CC1 [Compound 101] |  | 200 nM | 2570 nM |
| CN1CCN(Cc2ccc3[nH]/c(=N\C(=O)c4ccnc(Oc5c(F)ccc(O)c5C=O)c4)n(CC(C)(C)O)c3c2)CC1 [Compound 68] |  | 9.73 nM | 3470 nM |
| CN1CCN(C2CCN(c3ccc4c(c3)[nH]/c(=N\C(=O)c3ccnc(Oc5cccc(O)c5C=O)c3)n4CC(C)(C)O)CC2)CC1 [Compound 91] |  | 49.3 nM | > 10000 nM |
